From patent US5656660A, “Compositions and methods for treating mast-cell mediated conditions” (Arris Pharmaceutical Corporation, priority 1995, dated 1997)

Experiments:
tryptase = assay: In vitro tryptase inhibition assay; format: biochemical, human; details: tosyl-Gly-Pro-Lys-p-nitroanilide 0.5 mM; 1 h preincubation at room temperature; pH 8.2
Protocol: The compounds to be assayed (approximately 1 mg) were dissolved in 200 μL dimethylsulfoxide (DMSO) and diluted 1:10 into buffer containing 50 millimolar (mM) Tris-HCl (pH 8.2), 100 mM sodium chloride, and 0.05% polyoxyethylenesorbitan monolaurate (Tween-20°, available from Sigma, St. Louis, Mo.). Seven additional threefold dilutions were made from the initial dilution into the same buffer supplemented with 10% DMSO. Aliquots (50 microliters, μL) from each of the eight dilutions in the series were transferred to individual wells in a 96-well U-bottom microtiter plate. […] The tryptase solution was prepared by placing 60 μg/mL of tryptase into solution with 10 mM MES (2-[N-Morpholino]ethane sulfonic acid) containing 2 mM CaCl2, 20% glycerol and 50 μg/mL heparin. The enzyme reaction was initiated with the addition of the synthetic tripeptide substrate, tosyl-Gly-Pro-Lys-p-nitroanilide (available from Sigma, 25 μL; 0.5 mM final concentration). […] Initial velocity measurements calculated from the progress curves by a kinetic analysis program (BatchKi; Petr Kuzmic, University of Wisconsin, Madison, Wis.) were used to determine apparent inhibition constants for each inhibitor.

antigen-challenged sheep [1] = assay: Allergic sheep model of asthma, aerosol: Specific Lung Resistance (SRL) after antigen challenge; format: in vivo; details: aerosol 0.5 h before, 4 h after and 24 h after challenge, n=6; for early response to antigen challenge (SRL): peak immediately post-challenge; for late response to antigen challenge (SRL): peak within 6-8 h
Protocol: The initial asthmatic response can be evaluated in guinea pigs, and dogs, and particularly, with a basenji-greyhound cross strain which develops nonspecific airway hyperresponsiveness to numerous nonallergenic substances, such as methacholine and citric acid. […] In dual responding animals, the initial asthmatic response (IAR) is followed by a late asthmatic response (LAR) at 6-8 hours post-exposure.
The allergic sheep model (see below) was used to evaluate the potential antiasthmatic effects of the compounds of the present invention.
(§1) The allergic sheep model of asthma was employed for the in vivo evaluation of the compounds of the invention as antiasthmatics. These methods have been published previously (see Abraham et al. (1983) Am. Rev. Respir. Dis. 128:839-844; Allegra et al. (1983) J. Appl. Physiol. 55:726-730; Russi et al. (1985) J. Appl. Physiol. 59:1416-1422; Soler et al. ((1989) J. Appl. Physiol. 67:406-413. Each sheep serves as its own control. Body weights for these animals ranged from 20-50 kilograms.
(§2) In these studies, […] of Compound 2 of the invention was dissolved in buffered saline and the total solution delivered as an aerosol 0.5 hours before, 4 hours after, and 24 hours after antigen challenge (total dose=27; n=6). […] The peak early response was taken as the average of the maximum values occurring immediately post-challenge. Peak late responses were calculated by averaging the maximum response values obtained for each animal within the 6-8 hour time period. This approach is conservative and eliminates the possible reduction in the late response due simply to averaging.

antigen-challenged sheep [2] = assay: Allergic sheep model of asthma: airway hyperresponsiveness (PC400, carbachol); format: in vivo; details: aerosol; for PC400, concentration of carbachol that causes a 400% increase in SRL / onset of hyperresponsiveness: 24 h after antigen challenge
Description: as §1, §2
Twenty-four hours after antigen challenge in both the control and drug trial, the sheep developed airway hyperresponsiveness. Airway hyperresponsiveness is expressed as PC400, the concentration of carbachol that causes a 400% increase in SRL; therefore, a decrease in PC400 indicates hyperresponsiveness. […] The number of breath units fell to 10±4 for those animals in the control group.

antigen-challenged sheep [3] = assay: Allergic sheep model of asthma, oral (intergastric tube): Specific Lung Resistance (SRL); format: in vivo
Description: as §1
Three doses of Compound 2 (40 mg in 60 mL water) were administered to sheep through an intergastric tube 1 hr before challenge, 4 hours post-challenge, and 24 hours post-challenge.

| Molecule | Ki (tryptase) | other results |
| --- | --- | --- |
| N=C(N)Nc1ccc(CNC(=O)CNC(=O)OCc2ccc(COC(=O)NCC(=O)NCc3ccc(NC(=N)N)cc3)cc2)cc1 [Example 2, N,N'-(4-Guanidylbenzylaminecarbonylmethylene)-1,4-benzenedimethanol dicarbamate] | 20 nM | early response to antigen challenge (SRL) (antigen-challenged sheep [1]): statistically significant reduction in the early response; late response to antigen challenge (SRL) (antigen-challenged sheep [1]): attenuated the late response; PC400, concentration of carbachol that causes a 400% increase in SRL (antigen-challenged sheep [2]): 24±6 breath units; onset of hyperresponsiveness (antigen-challenged sheep [2]): block the onset of hyperresponsiveness; improvement in airway function in antigen challenged sheep (antigen-challenged sheep [2]): statistically significant improvement in airway function; early phase SRL (antigen-challenged sheep [3]; 40 mg in 60 mL water by intergastric tube 1 h before, 4 h and 24 h post-challenge, untreated about 350): about 270; late phase SRL (antigen-challenged sheep [3]; 40 mg in 60 mL water by intergastric tube 1 h before, 4 h and 24 h post-challenge, untreated over 150): about 70; anti-asthmatic properties when delivered orally (antigen-challenged sheep [3]; 40 mg in 60 mL water, intergastric tube, three doses): significant anti-asthmatic properties |
| NCc1ccc(CNC(=O)CCC(=O)NCc2ccc(CNC(=O)CCC(=O)NCc3ccc(CN)cc3)cc2)cc1 [Example 8, N,N'-bis(N-(4-aminomethylbenzyl)-succinamido)-p-xylylenediamide] | 3.45 nM | early response to antigen challenge (SRL) (antigen-challenged sheep [1]): statistically significant early and late increases in SRL; late response to antigen challenge (SRL) (antigen-challenged sheep [1]): statistically significant early and late increases in SRL; PC400, concentration of carbachol that causes a 400% increase in SRL (antigen-challenged sheep [2]): 15±10 breath units; onset of hyperresponsiveness (antigen-challenged sheep [2]): block the onset of hyperresponsiveness; improvement in airway function in antigen challenged sheep (antigen-challenged sheep [2]): statistically significant improvement in airway function |
| C[C@H](NC(=O)OCc1ccc(COC(=O)N[C@@H](C)C(=O)NCc2ccc(CN)cc2)cc1)C(=O)NCc1ccc(CN)cc1 [Example 13, Bis(p-xylylenediamine-L-alanine)-1,4-benzenedimethanol dicarbamate] | 31 nM |  |
| N=C(N)Nc1ccc(CNC(=O)CCNC(=O)OCc2ccc(COC(=O)NCCC(=O)NCc3ccc(NC(=N)N)cc3)cc2)cc1 [Example 3] | 9 nM |  |
| CN(CCCC(=O)NCc1ccc(CN)cc1)C(=O)c1ccc(C(=O)N(C)CCCC(=O)NCc2ccc(CN)cc2)cc1 [Example 20, N,N'-Bis(N-[4-aminomethylbenzyl)butyramido)-N,N'-bis(methyl)terephthalamide] | 107 nM |  |
| NCc1ccc(CNC(=O)CCC(=O)NCc2ccc(CNC(=O)CCC(=O)NCc3cccc(CN)c3)cc2)cc1 [Example 35, N-(3-Aminomethylbenzylsuccinamido)-N'-(4-aminomethyl-benzylsuccinamido)-p-xylylene diamide] | 19 nM |  |
| N=C(N)Nc1ccc(CNC(=O)CCC(=O)NCc2ccc(CNC(=O)CCC(=O)NCc3ccc(NC(=N)N)cc3)cc2)cc1 [Example 37] | 40 nM |  |
| CN(Cc1ccc(CN(C)C(=O)CCCC(=O)NCC2CCC(CN)CC2)cc1)C(=O)CCCC(=O)NCC1CCC(CN)CC1 (stereo not drawn) [Example 27, N,N'-Bis(methyl)-bis(N-(4-aminomethylcyclohexylmethyl)-glutaramido)-p-xylylene didmine] | 138 nM |  |
| Bis((R,S)-2-(2-(4-guanidinobenzylamino)-2,3-dehydro-6-piperidone)-1,4-benzenedimethanol dicarbmate [Example 41] | 611 nM |  |
| NCc1ccc(C(=O)NCCNC(=O)OCc2ccc(COC(=O)NCCNC(=O)c3ccc(CN)cc3)cc2)cc1 [Example 16, N,N'-Bis(4-aminomethylbenzamidoethylene)-1,4-benzenedimethanol dicarbamate] | 396 nM |  |
| N=C(N)NCc1ccc(NC(=O)CNC(=O)OCc2ccc(COC(=O)NCC(=O)Nc3ccc(CNC(=N)N)cc3)cc2)cc1 [Example 43, Bis((4-guanidomethylanilido)glycine)-1,4-benzenedimethanol dicarbamate] | 8100 nM |  |
| CC1(C)O[C@@H](C(=O)NCc2ccc(CN)cc2)[C@H](C(=O)NCc2ccc(CNC(=O)[C@@H]3OC(C)(C)O[C@H]3C(=O)NCc3ccc(CN)cc3)cc2)O1 [Example 28, N,N'-Bis(N-(4-aminomethylbenzyl)-dimethyl-2,3-isopropylidenetartaramido)-p-xylylene diamide] | 643 nM |  |
| N=C(N)Nc1ccc(CNC(=O)[C@@H]2CCCN2C(=O)OCc2ccc(COC(=O)N3CCC[C@H]3C(=O)NCc3ccc(NC(=N)N)cc3)cc2)cc1 [Example 4, Bis((4-quanidylbenzyl)-L-prolineamide-N^α -carbonyl)-1,4-dimethanolbenzene] | 4000 nM |  |
| NC[C@H]1CC[C@H](CNC(=O)CNC(=O)OCc2ccc(COC(=O)NCC(=O)NC[C@H]3CC[C@H](CN)CC3)cc2)CC1 [Example 45, Bis(trans-1,4-cyclohexyldimethylamine-glycine)-1,4-benzenedimethanol dicarbamate] | 10 nM |  |
